# Numbered stars: 1 amine (or outer) side, 2 acyl side, 3 side chain; on linkers, the order of the positions; unused ones are H or OH. Bridge positions count the residues as written; N and C are the ends. Square brackets hold non-standard residues; d marks the D form. Peptide text beside a SMILES is read from it. I, II: the chains in the order shown. Actinocin(9to1) = Cc1c2oc3c(C)ccc(C(=O)[*:1])c3nc-2c(C(=O)[*:2])c(N)c1=O; NMeV = CN[C@H](C(=O)O)C(C)C; Sar = CNCC(=O)O
# What was measured:
# [1] = system: AChmiRNA (miRNA-181a); assay: AChmiRNA (miRNA-181a) level by real-time RT-PCR in Meg-01 cells; format: cell-based, human; details: for AChmiRNA levels on co-treatment with Thapsi: Meg-01 cells co-treated with Thapsi and inhibitor; for ARP-induced decrease of AChmiRNA on co-treatment: Meg-01 cells, ARP plus inhibitor
# [2] = system: activated caspase-3; assay: Activated caspase-3 immunostaining in Meg-01 cells; format: cell-based, human; details: for caspase-3 activation induced by Thapsi or ARP, with co-treatment: 24 hours, Thapsi or ARP plus inhibitor; for caspase-3 activation induced by Thapsi, with co-treatment: Thapsi plus inhibitor
# [3] = system: AChE-R; assay: AChE-R protein immunocytochemistry in Meg-01 cells; format: cell-based, human; details: 24 hours
# [4] = system: 3′UTR fragment of human AChE cDNA; assay: Dot blot hybridization of LNA-modified oligos with PCR-amplified AChE 3′UTR; format: binding; details: 5′-32P-labeled LNA-modified oligos
# Description: The common AChE 3′-UTR sequence was obtained from AY750146 (all mRNA sequence beginning from stop codon). 3′-UTR of AChE was amplified by RT-PCR using Promega reagents and total RNA isolated with QIAGEN RNeasy kit from post-mortem human brain, with primers including XhoI, NotI restriction sites in 5′ and 3′ primer, respectively. Primer sequences used were: (5′): […], (3′) (SEQ ID NO: 111): […] (SEQ ID NO: 112). Annealing temperature of 57° C. was used. PCR product was purified with QIAGEN QiaQuick kit, size of fragment verified in agarose gel, spotted on a dry HyBond nylon membrane in 2 ul drops, cross-linked to the membrane using 1200 mJ UV burst, and baked for 1 hr at 80° C. Membrane was blocked for at least 2 hours in solution containing 50% deionized formamide, 5×SSPE, 0.5% SDS, 5×Denhardt's Solution at 50° C.; and hybridized o/night in same conditions with 5′-32P-labeled probes mimicking miRs wholly or with mismatches as indicated, washed 4 times at 37° C. in 3×SSPE, 5% SDS, 10×Denhardt's solution; once at 42° C. in 1×SSPE, 1% SDS; exposed over up to 3 days to a PhosphorImager (Molecular Dynamics/GE Healthcare) plate, and signal quantified using FujiFilm's ImageGauge 4 software.
# [5] = system: RAW 264.7 cells; assay: NO production of LPS-challenged RAW 264.7 cells transfected with miR mimics; format: cell-based, murine
# Description: Murine RAW 264.7 macrophage-derived cell line known to express TLR4 and respond to endotoxin by production of pro-inflammatory mediators such as Nitric Oxide (NO), prostaglandins, and cytokines as ILE IL6, and TNFalpha were used (described in the preceding examples e.g., Examples 7 and 8). Cells were grown in 5 ml flasks in a humidified atmosphere in Dulbecco's modified Eagle's medium (DMEM, Biological Industries) supplemented with 10% fetal calf serum (FCS) and 2 mM L-glutamine at 37° C., 5% CO2.
# Griess method was used to determine NO2 levels in medium in which macrophages had been cultured. 100 μl of each sample+100 μl of Griess reagent (1% sulfanilamide/0.1% naphthylethylenediamine dihydrochloride/2.5% H3PO4)—were incubated 10-20 min at room temperature. Read absorbance at 546 nm in micro-ELISA reader.
# miR 132 and 182* (SEQ ID NOs: 54 and 93, respectively) were LNA modified (products are designated with SEQ ID NOs. 107 and 108, respectively). A locked nucleic acid (LNA), often referred to as inaccessible RNA, is a modified RNA. Ribose moiety of LNA nucleotide is modified with an extra bridge connecting 2′ and 4′ carbons. The bridge “locks” the ribose in 3′-endo structural conformation, which is often found in A-form of DNA or RNA. LNA nucleotides can be mixed with DNA or RNA bases in the oligonucleotide whenever desired. The locked ribose conformation enhances base stacking and backbone pre-organization.
# electroporation and lipofection were used for cell transfection.
# Oligos containing LNA modifications on every third base (Table 4) were obtained from Sigma-Proligo. Transfection was performed with Lipofectamine 2000 (Invitrogen, Carlsbad, Calif.) using 3 μg of oligo per sample. Briefly, cells were brought to 80%-90% confluence at the time of transfection. For each transfection sample, 3 μg oligo were diluted in 1 ml of RPMI-1640 while the lipofectamine reagent was diluted in 1 ml of RPMI-1640. After 5 minutes the diluted oligo and lipofectamine were combined and incubated for 20 minutes. This was added to the cells within the 75 ml flask, containing 6 ml RPMI complete+GM-CSF ([…] final oligo concentration). […]
# To determine cell viability 40 μl of thiazolyl blue tetrazolium bromide (MTT) reagent (Sigma) at 5 mg/ml was added per sample well, incubated for 30 minutes at 37° C. Medium was removed, 400 μl of DMSO was added per well and absorbance read at 550 nm Griess method was used to determine NO2 levels in conditioned medium from macrophage cultures. […] Absorbance was read at 546 nm in a micro-ELISA reader. TNF-α, IL-6 levels were measured by Enzyme-Linked Immunosorbent Assay (ELISA) according to manufacturer's procedures (R&D Systems kits, MTA00, M6000B, respectively). All absorbance results were normalized using standard curves. […]
# [6] = system: PKCβII; assay: PKCβII immunocytochemistry in Meg-01 cells; format: cell-based, human; details: 24 hours
# [7] = system: AChE-R mRNA; assay: AChE-R mRNA level (RT-PCR, fluorescent in situ hybridization) in Meg-01 cells; format: cell-based, human; details: negative control oligo, data not shown
# [8] = system: Murine macrophage RAW 264.7 cells; assay: Nitric oxide production (nitrite, Griess) by RAW 264.7 macrophages; format: cell-based; details: LPS 1 μg/ml, IFN-γ 4 ng/ml, oligos 100 nM
# Description: Murine macrophage RAW 264.7 cells were cultured in 48 well plates (50×10^3 cells per well). The production of NO by these macrophages was examined following various stimuli (6 repetitions for each treatment) at three time intervals (6, 12 and 24 hours) as depicted in FIGS. 27a, 27b and 27c.
# Mouse RAW cells, human U937 cells and primary human macrophages were treated for 24 h with 1 μM CpG oligonucleotides or 1 μg/ml bacterial lipopolysaccharide added to standard growth medium
# Interleukin 6 expression was assayed by QRT-PCR, nitric oxide was measured by Griess assay and prostaglandin E2 levels were measured by R&D ELISA kit according to manufacturer's instructions.
molecule,measurement,setting,value
"O=S(=O)(NCCNCC=Cc1ccc(Br)cc1)c1cccc2cnccc12 [H89, N-(2-((p-Bromocinnamyl)amino)ethyl)-5-isoquinolinesulfonamide]",AChmiRNA levels on co-treatment with Thapsi,[1],restored the control levels of AChmiRNA
same,ARP-induced decrease of AChmiRNA on co-treatment,[1],prevented the ARP effect
same,"caspase-3 activation induced by Thapsi or ARP, with co-treatment",[2],prevented the differentiation-associated caspase-3 activation induced by both Thapsi and ARP
same,"increase in AChE-R immunoreactivity elicited by Thapsi or ARP, with co-treatment",[3],blocked the characteristic increase in AChE-R immunoreactivity
"miR-182* mut2G>A: miR-182* mimic with single mismatch in second nucleotide: TA+GTT+CTA+GAC+TTG+CCA+ACT+A (TAGTTCTAGACTTGCCAACTA; LNA at 3, 6, 9, 12, 15, 18, 21, other sugars and backbone not given here)",binding to PCR-amplified AChE 3′UTR (dot blot signal),[4],disappeared altogether
"miR-182* mimic: LNA-modified oligo mimicking miR-182*: TG+GTT+CTA+GAC+TTG+CCA+ACT+A (TGGTTCTAGACTTGCCAACTA; LNA at 3, 6, 9, 12, 15, 18, 21, other sugars and backbone not given here)",activation of macrophage cell lines by LPS (NO production) after transfection,[5]; LPS-exposed RAW-264.7 cells transfected with oligo (Example 13),somewhat less prominently
same,endotoxin response (NO production) after transfection,"[5]; RAW 264.7 cells transfected or electroporated, then endotoxin challenge (Example 11)",significantly attenuate endotoxin response
same,binding to PCR-amplified AChE 3′UTR (dot blot signal),[4],significant binding to 20 ng doses of PCR product
"CCCCCCCCCCCCCC(=O)O[C@@H]1[C@@H](C)[C@@]2(O)[C@@H](C=C(CO)C[C@]3(O)C(=O)C(C)=C[C@@H]23)[C@@H]2C(C)(C)[C@]12OC(C)=O [PMA, phorbol 12-myristate 13-acetate]",staining intensity for PKCβ,[6],increased staining intensity for PKCβ
"miR-132 mut2A>G: miR-132 mimic with single mismatch in second nucleotide: TG+ACA+GTC+TAC+AGC+CAT+GGT+CG (TGACAGTCTACAGCCATGGTCG; LNA at 3, 6, 9, 12, 15, 18, 21, other sugars and backbone not given here)",binding to PCR-amplified AChE 3′UTR (dot blot signal),[4],detectable signal only when bound to 50 ng of PCR product
CO[C@H](C/C=C\C=C\CC/C=C/C[C@H](C)/C=C/C(=C\C(=O)O)CC(=O)O)/C(C)=C\C=C(/C)C(=O)O [Bongkrekic acid],"caspase-3 activation induced by Thapsi or ARP, with co-treatment",[2],inhibited the caspase-3 activation induced by ER-calcium releasing or ARP
Bisindolylmaleimide [BIM],AChmiRNA levels on co-treatment with Thapsi,[1],restored the control levels of AChmiRNA
same,ARP-induced decrease of AChmiRNA on co-treatment,[1],prevented the ARP effect
same,"caspase-3 activation induced by Thapsi or ARP, with co-treatment",[2],inhibited the activation of caspase-3 induced by both treatments
same,"increase in AChE-R immunoreactivity elicited by Thapsi or ARP, with co-treatment",[3],blocked the characteristic increase in AChE-R immunoreactivity
"Cc1c2oc3c(C)ccc(C(=O)N[C@@H]4C(=O)N[C@H](C(C)C)C(=O)N5CCC[C@H]5C(=O)N(C)CC(=O)N(C)[C@@H](C(C)C)C(=O)O[C@@H]4C)c3nc-2c(C(=O)N[C@@H]2C(=O)N[C@H](C(C)C)C(=O)N3CCC[C@H]3C(=O)N(C)CC(=O)N(C)[C@@H](C(C)C)C(=O)O[C@@H]2C)c(N)c1=O [actinomycin D, Actinomycin D] (I: T[dV]P[Sar][NMeV] / II: T[dV]P[Sar][NMeV]; ester I:1-I:C, II:1-II:C; linker I:N-II:N via Actinocin(9to1))","caspase-3 activation induced by Thapsi, with co-treatment",[2],inhibited
"SEQ ID NO:20: similar oligo with an inverse sequence to AChmiON, used as negative control (CCACGUCCUCUUGCACCGUC; similar oligo to AChmiON, chemistry not explicitly stated, further chemistry not given here)",effect on the AChE splice shift,[7],no significant effect on the AChE splice shift
IFN-γ: interferon (IFN)-γ,Nitrite concentration reflecting NO production,"[8]; RAW 264.7, 6 hours",8 µM
same,Nitrite concentration reflecting NO production,"[8]; RAW 264.7, 12 hours",26 µM
same,Nitrite concentration reflecting NO production,"[8]; RAW 264.7, 24 hours",54 µM
CN(C)C(=O)Oc1ccc[n+](C)c1 [Pyridostigmine],"caspase-3 activation induced by Thapsi, with co-treatment",[2],inhibited the activation of caspase-3 induced by Thapsi

# Reference: patent publication US20130317092A1 (priority 2007, published 2013)
